SMILES strings stand for the structures.

Results on three molecules are retold here after ChEMBL document CHEMBL1133836, “Anchoring and bola cationic amphiphiles for nucleotide delivery. Effects of orientation and extension of hydrophobic regions” (2001).

Holding throughout (format): functional, Mus musculus
In assay [1] the test system is NIH3T3. Description: Transfection activity of the liposomes derived from compound determined by luciferase assay at 12.5 nmol.
The test system of assay [2] is NIH3T3. Briefly: Cytotoxicity expressed as percent viability of liposome-plasmid DNA complex at 25 nmol.
Assay [3] concerns NIH3T3. Description: Transfection activity of the liposomes derived from compound determined by luciferase assay at 25 nmol.
Assay [4] relates to NIH3T3. Briefly: Cytotoxicity expressed as percent viability of liposome-plasmid DNA complex at 50 nmol.
Assay [5] concerns NIH3T3. Description: Cytotoxicity expressed as percent viability of liposome-plasmid DNA complex at 12.5 nmol.
Assay [6] concerns NIH3T3. Briefly: Cytotoxicity expressed as percent viability of liposome-plasmid DNA complex at 100 nmol.
The subject of assay [7] is NIH3T3. Briefly: Cytotoxicity expressed as percent viability of liposome-plasmid DNA complex.

Turning to `C[C@H](CCC(=O)NCCCNCCCCN)C1CCC2C3CCC4CC(OC/C=C/CO[C@@H]5CC[C@]6(C)C(CCC7C6CC[C@]6(C)C7CCC6[C@H](C)CCC(=O)NCCCNCCCCN)C5)CC[C@]4(C)C3CC[C@@]21C` (stereo partly drawn), the Transfection activity in the assay with NIH3T3 [1] is 1000000 RLU (mg of protein)-1.
As to `C[C@H](CCC(=O)NCCCNCCCCN)C1CCC2C3CCC4CC(OC/C=C/CO[C@H]5CC[C@]6(C)C(CCC7C6CC[C@]6(C)C7CCC6[C@H](C)CCC(=O)NCCCNCCCCN)C5)CC[C@]4(C)C3CC[C@@]21C` (stereo partly drawn), the results for the Transfection activity in the assay with NIH3T3 [1] and in the assay on NIH3T3 [3] were 1500000 RLU (mg of protein)-1 and 2000000 RLU (mg of protein)-1, respectively. Moreover, the Viability in the assay with NIH3T3 [2] amounted to 75%; in the assay on NIH3T3 [4], 40%; in the assay on NIH3T3 [5], 95%; with NIH3T3 [6] it was 5%.
Take `CC(C)CCC[C@@H](C)C1CCC2C3CC=C4CC(OC(=O)NCCN(C)C)CCC4(C)C3CCC21C` (stereo partly drawn): in the assay with NIH3T3 [7], the Viability worked out at 95%.
